From patent US20110044936A1, “Composition for Attracting Bed Bugs” (priority 2009, published 2011)

Experiments:
Assay type in all cases: in vivo
[1] = tested on: bed bugs (Cimex lectularius); experiment: Bed bug aggregation (attraction) assay, Petri dish arena with treated and control filter paper tents (Example 1); conditions: 5 microliters, one hour, five bed bugs, average of two tests
Procedure: Attraction Assays: Assay arenas were made from 150×15 mm plastic Petri dishes (VWR#25384-326) containing a 125 mm piece off qualitative filter paper (VWR#28320-100) glued to the bottom using 3M Super 77® multipurpose spray adhesive. A 80 mm hole was cut into the lid and a 500 um mesh Nytex® screen (Bioquip, #7293B) was glued to cover the opening using quick epoxy. Fresh bottom dishes were used in each assay. For these experiments 2.4 cm filter paper folded to create a tent were treated with either a control treatment (10 microliters of silicone oil for aldehyde controls and 5 microliters of deionized water for acid controls) or 10 microliters of the experimental test treatment diluted in silicone oil (aldehydes) or 5 microliters of the experimental chemical diluted in deionized water (acids). Ten bed bugs per test were released into the assay arena for the aldehyde test treatments and controls, five bed bugs per test were released into the assay arena for the acid test treatments. Day cycling bed bugs (Cimex lectularius), 12 hour light: 12 hour dark (7 AM On: 7 PM Off) light cycle, were incubated and evaluated under normal room lighting conditions at room temperature. Readings were taken at 1 hour intervals from the release of bed bugs for 4 hours for aldehydes and one hour for acids, due to the quick volatility of the acids. The number of bed bugs under the control filter paper disk and the number of bed bugs under the test treatment filter paper disk were recorded. The test treatment was considered to be an attractant if the number of bed bugs under the experimental filter disk was greater than the number under the control filter disk. Table 1 below summarizes the experimental data, the experimental test treatments considered as attractants are in bold.

[2] = tested on: bed bugs (Cimex lectularius); experiment: Bed bug aggregation assay, mixtures of Hexenal, Octenal and butyric acid (Example 3); conditions: for Number of bed bugs under experimental (Exp) disk: H/O 75/25 120 ppm in silicone oil, BA about 100 ppm in deionized water, 5 microliters each, ten bed bugs, average of two tests
Procedure: Attraction Assays: […] For this test, a mixture of Hexenal and Octenal (75:25 ratio) was diluted in silicone oil to provide about a 120 ppm solution. […] Readings were taken hourly for four hours from the release of bed bugs in the assay arena. The number of bed bugs under the control disk and the number of bed bugs under the experimental disk were recorded. The test chemical was considered to be an attractant if the number of bed bugs under the experimental filter disk was greater than the number under the control disk. Table 3 below summarizes the experimental data, the experimental test treatment considered as attractants are in bold.

[3] = tested on: bed bugs (Cimex lectularius); experiment: Test arena gas assay, compounds dissolved in nonane (Example 5)
Source text: A test arena was constructed from a 60×40×22 cm (L:W:H) polystyrene container. A 60×40 cm piece of filter paper was glued on the bottom to provide a walking surface for the bed bugs. At one end of the test arena, a triangular piece of plastic (16 cm high×25 cm long) was glued to the middle of the side and bottom of the container to create test zones of equal area on either side of the partition. On each side of this partition a piece of Tygon® tubing was inserted through a hole 7 cm above the bottom of each test zone to deliver a control gas to one side of the partition (control zone) and the experimental gas to the other side of the partition (experimental zone). The tubing was positioned to deliver the gases downward into the test zones with each outlet 6 cm above the filter paper glued to the bottom of the container. At the other end of the test arena, a 4 W night light was placed 35 cm above the bottom of the arena and regulated to a 12 hour light:12 hour dark (7 AM On: 7 PM Off) light cycle. Also placed adjacent to the night light was a small fan (Boston, cat#EHSDF) to create a gentle removal of gases from the distal part of the arena. Air released by the experimental and control gases was contained within their partitions and were gently drawn away from the respective air inputs, mixed within the arena and removed by the fan. This created a laminar flow where the bed bugs had opportunity to select either the experimental or control gas. Fifty bed bugs (Cimex lectularius) were entrapped within an inverted 90 mm Petri dish at a position furthest from the control and experimental zones until bed bugs were quiescent. Removal of the Petri dish started the experiment and readings were taken every hour for two hours. Data collected were number of bed bugs in the experimental, control and free arena zones. In addition, gas temperature, relative humidity, air flow rate, and percent CO2 data were collected. The experimental gas was considered to be an attractant if more bed bugs were in the experimental zone than in the control zone.
Determination of Bed Bug Aggregation Effect Using Hexenal, Butyric Acid, trans-2-Hexen-1-al Diethylacetal, Trimethylsilyl Butyrate or Methyl Butyrate Dissolved in an Alkane Solvent Using the test arena and methods described in Example 4, test treatments containing about 300 ppm of a pro-aldehyde compound, trans-2-hexen-1-al diethylacetal, dissolved in nonane, about 300 ppm of Hexenal dissolved in nonane, about 200 ppm of butyric acid dissolved in nonane and about 200 ppm of a pro-organic acid compound, trimethylsilyl butyrate or methyl butyrate, dissolved in nonane were prepared. Separate 100 micro liter pipettes (Drummond Wiretrol 100 μL) were filled with the test solutions. One end of each micro liter pipette was sealed with parafilm leaving one end of each open. […] An air tight lid was placed onto the plastic container and the container was installed in-line after humidity and temperature conditioning of the gas and before the gas entered the arena. The micro liter pipettes were weighed before and after use to determine the amount of the test compounds released. The control gas used for these experiments consisted of house compressed air.

[4] = tested on: bed bugs (Cimex lectularius); experiment: Test arena assay with experimental gas and control gas zones (Example 4); conditions: after two hour exposure; fifty bed bugs; Hexenal/Octenal 75/25 at 73 nanograms/hour, butyric acid 3.097 micrograms/hour @ 100 mL/min air flow; CO2 50%; test gas 23-26 °C; control gas compressed air
Source text: A test arena was constructed from a 60×40×22 cm (L:W:H) polystyrene container. […] At one end of the test arena, a triangular piece of plastic (16 cm high×25 cm long) was glued to the middle of the side and bottom of the container to create test zones of equal area on either side of the partition. On each side of this partition a piece of Tygon® tubing was inserted through a hole 7 cm above the bottom of each test zone to deliver a control gas to one side of the partition (control zone) and the experimental gas to the other side of the partition (experimental zone). The tubing was positioned to deliver the gases downward into the test zones with each outlet 6 cm above the filter paper glued to the bottom of the container. […] Removal of the Petri dish started the experiment and readings were taken every hour for two hours. […] Air temperature was monitored with a high/low thermometer. […] Relative humidity was monitored using a high/low hygrometer placed in-line immediately before the gas entered the arena. […] The relationship between valve settings and air flow was determined and using this information, valve settings were determined that could deliver blended gases (air and CO2) at a flow rate of about 100 or about 200 ml/min. […]

Row | Compound | Number of bed bugs under experimental (Exp) filter paper disk ([1]; organic acid 10 ppm in deionized water) | Number of bed bugs under experimental (Exp) filter paper disk ([1]; organic acid 50 ppm in deionized water) | Number of bed bugs under experimental (Exp) filter paper disk ([1]; organic acid 100 ppm in deionized water) | Number of bed bugs under experimental (Exp) filter paper disk ([1]; organic acid 1000 ppm in deionized water) | Number of bed bugs under experimental (Exp) filter paper disk ([1]; organic acid 10000 ppm in deionized water) | Number of bed bugs under experimental (Exp) disk ([2]; 1 Hour) | Number of bed bugs under experimental (Exp) disk ([2]; 2 Hour) | Number of bed bugs under experimental (Exp) disk ([2]; 3 Hour) | Number of bed bugs under experimental (Exp) disk ([2]; 4 Hours) | Attraction of bed bugs to experimental filter disks ([2]; H/O 75:25 120 ppm, butyric acid 100 ppm) | % Bed bugs in Experimental Zone ([3]; after two hour exposure, released from nonane solution at 150.0-184.8 nanograms/hour @ 100 mL/min air flow, test gas 21-22 °C, control gas compressed air) | Attraction of bed bugs to gaseous mixture ([3]; test arena, two hour exposure, versus control gas) | % Bed bugs in Experimental Zone [4]
1 | CCCC(=O)O [Butyric acid, butyric acid] | 4 | 2 | 4 | 4 | 4 | 4.5 | 5.5 | 4.5 | 5 | attracted | 34.0% | attracted | 
2 | O=C=O [CO2, carbon dioxide] |  |  |  |  |  |  |  |  |  |  |  |  | 76.0%
